IC50 data for 25 molecules are collected here from patent US9765092B2, “Tricyclic piperidine compounds” (ACTELION PHARMACEUTICALS LTD, priority 2013, dated 2017).

The assay deals with human TPH1 (Homo sapiens (Human), UniProt P17752). Put plainly: Biochemical in vitro assay using fluorescence readout (TPH1 inhibition).
Where [1] appears, read: human TPH1, fluorescence readout.
[2] abbreviates: full length human TPH1, 40 μM L-tryptophan, 15° C., 60 minutes, fluorescence at 540 nm, mean if determined several times.

A word on the IC50: it is the midpoint of a concentration-inhibition curve. The low end stands for inhibition by little substance, the high end for a need for much substance.

Sequence of human TPH1 (P17752 whole entry): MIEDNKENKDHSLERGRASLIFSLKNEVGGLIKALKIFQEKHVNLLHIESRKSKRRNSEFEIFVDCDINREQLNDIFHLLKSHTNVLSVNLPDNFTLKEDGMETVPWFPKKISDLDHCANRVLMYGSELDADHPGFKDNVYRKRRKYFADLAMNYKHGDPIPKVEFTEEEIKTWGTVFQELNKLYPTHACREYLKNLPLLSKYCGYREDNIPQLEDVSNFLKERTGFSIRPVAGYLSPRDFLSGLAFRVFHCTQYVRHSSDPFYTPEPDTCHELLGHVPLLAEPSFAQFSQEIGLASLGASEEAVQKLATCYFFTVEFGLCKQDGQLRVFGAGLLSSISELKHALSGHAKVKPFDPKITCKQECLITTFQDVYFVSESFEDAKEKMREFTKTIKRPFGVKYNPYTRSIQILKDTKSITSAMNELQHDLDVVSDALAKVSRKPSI

The molecule `CCc1nc(NS(C)(=O)=O)ccc1OCC(=O)N1CCc2nc3sc(C(F)(F)F)nn3c2C1c1ccc(Cl)cc1F` (stereo not shown) [Example 5.1.2, N-(5-(2-(5-(4-chloro-2-fluorophenyl)-2-(trifluoromethyl)-7,8-dihydro-[1,3,4]thiadiazolo[2′,3′:2,3]imidazo[4,5-c]pyridin-6(5H)-yl)-2-oxoethoxy)-6-ethylpyridin-2-yl)methanesulfonamide] gave an IC50 under setting [1] of 32 nM.
`Cc1nn2c3c(nc2s1)CCN(C(=O)COc1ccc(-c2ncco2)nc1Cl)C3c1ccc(Cl)cc1F` (stereo not shown) [Example 1.4.47, 1-(5-(4-chloro-2-fluorophenyl)-2-methyl-7,8-dihydro-[1,3,4]thiadiazolo[2′,3′:2,3]imidazo[4,5-c]pyridin-6(5H)-yl)-2-((2-chloro-6-(oxazol-2-yl)pyridin-3-yl)oxy)etha-none] came in with an IC50 under setting [1] of 10 nM.
On the same count and under the same terms, next, `COc1ccc(C2c3c(nc4sccn34)CCN2C(=O)COc2ccc(CN3CCOCC3)cc2Cl)c(F)c1` (stereo not shown) [Example 6.3.1, 2-(2-chloro-4-(morpholinomethyl)phenoxy)-1-(5-(2-fluoro-4-methoxyphenyl)-7,8-dihydrothiazolo[2′,3′:2,3]-imidazo[4,5-c]pyridin-6(5H)-yl)ethanone]: 5 nM; `Cc1ccc(OCC(=O)N2CCc3nc4sccn4c3C2c2cnn(-c3ccccc3)c2)cc1` (stereo not shown) [Example 6.13.3, 1-(5-(1-phenyl-1H-pyrazol-4-yl)-7,8-dihydrothiazolo-[2′,3′:2,3]imidazo[4,5-c]pyridin-6(5H)-yl)-2-(p-tolyl-oxy)ethanone]: 53 nM.
Same read-out and setting: next, `Cc1cnc(C2c3c(nc4sc(C)nn34)CCN2C(=O)COc2ccc(C(=O)N(C)C3CC3)nc2Cl)c(F)c1` (stereo not shown) [Example 1.31.14, 6-chloro-N-cyclopropyl-5-(2-(5-(3-fluoro-5-methylpyridin-2-yl)-2-methyl-7,8-dihydro-[1,3,4]thiadiazolo[2′,3′:2,3]imidazo[4,5-c]pyridin-6(5H)-yl)-2-oxoethoxy)-N-methylpicolinamide]: 32 nM.
In the case of `Cc1nn2c3c(nc2s1)CCN(C(=O)COc1ccc(S(N)(=O)=O)nc1Cl)C3c1ccc(Cl)cc1F` (stereo not shown) [Example 1.4.12, 6-Chloro-5-(2-(5-(4-chloro-2-fluorophenyl)-2-methyl-7,8-dihydro-[1,3,4]thiadiazolo[2′,3′:2,3]imidazo[4,5-c]pyridin-6(5H)-yl)-2-oxoethoxy)pyridine-2-sulfonamide], half-maximal inhibition under setting [2] (IC50) was put at 57 nM.
In the case of `Cc1ccc(OCC(=O)N2CCc3nc4sccn4c3C2c2nc3ccccc3s2)cc1` (stereo not shown) [Example 6.12.1, 1-(5-(benzo[d]thiazol-2-yl)-7,8-dihydrothiazolo-[2′,3′:2,3]imidazo[4,5-c]pyridin-6(5H)-yl)-2-(p-tolyloxy)ethanone], under setting [1], half-maximal inhibition (IC50) was put at 26 nM.
In turn, `Cc1nn2c3c(nc2s1)CCN(C(=O)COc1cnc(N(C)C)nc1Cl)C3c1ccc(Cl)cc1F` (stereo not shown) [Example 1.4.40, 2-((4-chloro-2-(dimethylamino)pyrimidin-5-yl)oxy)-1-(5-(4-chloro-2-fluorophenyl)-2-methyl-7,8-dihydro-[1,3,4]thiadiazolo [2′,3′:2,3]imidazo[4,5-c]pyridin-6(5H)-yl)ethanone] returned an IC50 under setting [1] of 4 nM.
For `Cc1nn2c3c(nc2s1)CCN(C(=O)COc1ccc(C(=O)NCC#N)nc1Cl)C3c1ccc(Cl)cc1F` (stereo not shown) [Example 1.4.23, 6-Chloro-5-(2-(5-(4-chloro-2-fluorophenyl)-2-methyl-7,8-dihydro-[1,3,4]thiadiazolo[2′,3′:2,3]imidazo[4,5-c]pyridin-6(5H)-yl)-2-oxoethoxy)-N-(cyano-methyl)picolinamide], the IC50 under setting [2] was 247 nM.
Turning to `O=C(COc1ccc(CN2CCOCC2)cc1Cl)N1CCc2nc3sccn3c2C1c1cnn(-c2ccccc2)c1` (stereo not shown) [Example 6.13.5, 2-(2-chloro-4-(morpholinomethyl)phenoxy)-1-(5-(1-phenyl-1H-pyrazol-4-yl)-7,8-dihydrothiazolo-[2′,3′:2,3]imidazo[4,5-c]pyridin-6(5H)-yl)ethanone], the IC50 under setting [1] was found to be 7 nM.
Molecule `Cc1nn2c3c(nc2s1)CCN(C(=O)COc1ccc(C(F)(F)F)cc1Cl)C3c1cc(C(=O)N(C)C)cs1` (stereo not shown) [Example 1.9.3, 5-(6-(2-(2-Chloro-4-(trifluoromethyl)phenoxy)acetyl)-2-methyl-5,6,7,8-tetrahydro-[1,3,4]thiadiazolo[2′,3′:2,3]imidazo[4,5-c]pyridin-5-yl)-N,N-dimethylthiophene-3-carboxamide] returned an IC50 under setting [2] of 77 nM.
On the same count and under the same terms, next, `Cc1nn2c3c(nc2s1)CCN(C(=O)COc1ccc(N(C)CCO)nc1Cl)C3c1ccc(Cl)cc1F` (stereo not shown) [Example 1.4.13, 1-(5-(4-Chloro-2-fluorophenyl)-2-methyl-7,8-dihydro-[1,3,4]thiadiazolo[2′,3′:2,3]imidazo[4,5-c]pyridin-6(5H)-yl)-2-((2-chloro-6-((2-hydroxyethyl)-(methyl)amino)pyridin-3-yl)oxy)ethanone]: 5 nM.
`Cc1nn2c3c(nc2s1)CCN(C(=O)COc1ccc(C#N)nc1Cl)C3c1ccc(Cl)cc1F` (stereo not shown) [Example 1.4.9, 6-chloro-5-(2-(5-(4-chloro-2-fluorophenyl)-2-methyl-7,8-dihydro-[1,3,4]thiadiazolo[2′,3′:2,3]imidazo[4,5-c]pyridin-6(5H)-yl)-2-oxoethoxy)picolinonitrile] gave an IC50 under setting [1] of 36 nM.
In turn, `Cc1nn2c3c(nc2s1)CCN(C(=O)COc1ccc(N2CCOCC2)nc1Cl)C3c1ccc(C(=O)N(C)C)o1` (stereo not shown) [Example 1.40.2, 5-(6-(2-((2-Chloro-6-morpholinopyridin-3-yl)oxy)acetyl)-2-methyl-5,6,7,8-tetrahydro-[1,3,4]thiadiazolo[2′,3′:2,3]imidazo[4,5-c]pyridin-5-yl)-N,N-dimethylfuran-2-carboxamide] had an IC50 under setting [2] of 12 nM.
Consider `Cc1nn2c3c(nc2s1)CCN(C(=O)COc1ccc(C(=O)N(C)C)nc1Cl)C3c1ccc(Cl)cc1F` (stereo not shown) [Example 1.4.42, 6-chloro-5-(2-(5-(4-chloro-2-fluorophenyl)-2-methyl-7,8-dihydro-[1,3,4]thiadiazolo[2′,3′:2,3]imidazo[4,5-c]pyridin-6(5H)-yl)-2-oxoethoxy)-N,N-dimethylpicolinamide], for which, under setting [1], half-maximal inhibition (IC50) required 18 nM.
`CS(=O)(=O)Nc1ccc(OCC(=O)N2CCc3nc4sc(C5CC5)nn4c3C2c2ccc(Cl)cc2F)c(Cl)n1` (stereo not shown) [Example 4.1.1, N-(6-chloro-5-(2-(5-(4-chloro-2-fluorophenyl)-2-cyclopropyl-7,8-dihydro-[1,3,4]thiadiazolo-[2′,3′:2,3]imidazo[4,5-c]pyridin-6(5H)-yl)-2-oxoethoxy)pyridin-2-yl)methanesulfonamide] returned an IC50 under setting [1] of 16 nM.
On the same count and under the same terms, next, `CCc1nc(C)ccc1OCC(=O)N1CCc2nc3sccn3c2C1c1ccc(C(F)F)cc1F` (stereo not shown) [Example 6.16.2, 1-(5-(4-(difluoromethyl)-2-fluorophenyl)-7,8-dihydro-thiazolo[2′,3′:2,3]imidazo[4,5-c]pyridin-6(5H)-yl)-2-((2-ethyl-6-methylpyridin-3-yl)oxy)ethanone]: 8 nM.
On the same count and under the same terms, next, `N#Cc1ccc(OCC(=O)N2CCc3nc4sccn4c3C2c2ncc(C3CC3)cc2F)c(Cl)n1` (stereo not shown) [Example 6.7.2, 6-chloro-5-(2-(5-(5-cyclopropyl-3-fluoropyridin-2-yl)-7,8-dihydrothiazolo[2′,3′:2,3]imidazo[4,5-c]pyridin-6(5H)-yl)-2-oxoethoxy)picolinonitrile]: 17 nM.
As to `Cc1nn2c3c(nc2s1)CCN(C(=O)COc1ccc(N2CCOCC2)nc1Cl)C3c1csc(CN(C)C)c1` (stereo not shown) [Example 1.69.1, 2-((2-Chloro-6-morpholinopyridin-3-yl)oxy)-1-(5-(5-((dimethylamino)-methyl)thiophen-3-yl)-2-methyl-7,8-dihydro-[1,3,4]thiadiazolo[2′,3′:2,3]imidazo[4,5-c]pyridin-6(5H)-yl)ethanone], the IC50 under setting [2] stood at 51 nM.
On to `Cc1nn2c3c(nc2s1)CCN(C(=O)COc1ccc(N2CCOCC2)nc1F)C3c1ncc(C2CC2)cc1F` (stereo not shown) [Example 1.14.5, 1-(5-(5-cyclopropyl-3-fluoropyridin-2-yl)-2-methyl-7,8-dihydro-[1,3,4]thiadiazolo[2′,3′:2,3]imidazo[4,5-c]pyridine-6(5H)-yl)-2-((2-fluoro-6-morpholinopyridin-3-yl)oxy)ethanone], for which the IC50 under setting [1] worked out at 9 nM.
Take `Cc1nn2c3c(nc2s1)CCN(C(=O)COc1ccc(C(=O)NO)nc1Cl)C3c1ccc(Cl)cc1F` (stereo not shown) [Example 1.4.25, 6-Chloro-5-(2-(5-(4-chloro-2-fluorophenyl)-2-methyl-7,8-dihydro-[1,3,4]thiadiazolo[2′,3′:2,3]imidazo[4,5-c]pyridin-6(5H)-yl)-2-oxoethoxy)-N-hydroxy-picolinamide]: half-maximal inhibition under setting [2] (IC50) required 14 nM.
Regarding `Cc1nn2c3c(nc2s1)CCN(C(=O)C(C)(C)Oc1ccc(NS(C)(=O)=O)nc1Cl)C3c1ccc(Cl)cc1F` (stereo not shown) [Example 1.4.56, N-(6-chloro-5-((1-(5-(4-chloro-2-fluorophenyl)-2-methyl-7,8-dihydro-[1,3,4]thiadiazolo[2′,3′:2,3]imidazo[4,5-c]pyridin-6(5H)-yl)-2-methyl-1-oxopropan-2-yl)oxy)pyridin-2-yl)methanesulfonamide], the half-maximal inhibitory concentration (IC50) under setting [1] is 567 nM.
The same measure, in the same setting: next, `Cc1nn2c3c(nc2s1)CCN(C(=O)COc1ccc(NS(C)(=O)=O)nc1Cl)C3c1ccc(OC(F)(F)F)cc1F` (stereo not shown) [Example 1.77.1, N-(6-chloro-5-(2-(5-(2-fluoro-4-(trifluoromethoxy)phenyl)-2-methyl-7,8-dihydro-[1,3,4]thiadiazolo[2′,3′:2,3]imidazo[4,5-c]pyridin-6(5H)-yl)-2-oxoethoxy)pyridin-2-yl)methanesulfonamide]: 13 nM; `Cc1noc(C)c1C1c2c(nc3sccn23)CCN1C(=O)COc1ccc(C(F)(F)F)cc1Cl` (stereo not shown) [Example 6.5.3, 2-(2-chloro-4-(trifluoromethyl)phenoxy)-1-(5-(3,5-di-methylisoxazol-4-yl)-7,8-dihydrothiazolo[2′,3′:2,3]-imidazo[4,5-c]pyridin-6(5H)-yl)ethanone]: 85 nM; `Cc1ccc(Cl)c(OCC(=O)N2CCc3nc4sccn4c3C2c2cc3cccnc3s2)c1` (stereo not shown) [Example 6.14.5, 2-(2-chloro-5-methylphenoxy)-1-(5-(thieno[2,3-b]-pyridin-2-yl)-7,8-dihydrothiazolo[2′,3′:2,3]imidazo[4,5-c]pyridin-6(5H)-yl)ethanone]: 43 nM.
